Laboratory results reported in US9133207B2, “Tetrandrine derivatives with substituted 5-carbon, preparation method and use thereof” (Hangzhou Bensheng Pharmaceutical Co., Ltd., priority 2011, dated 2015).
In brackets after ≈: the same amount, converted by molar mass.

Key:
[1] = system: Huh7 (human liver cancer cell); assay: Solid tumor cell growth inhibition, MTT, 72 h (Example 7); assay type: cell-based; conditions: Homo sapiens; 72 h, MTT, Huh-7
Method: (§1) Human solid tumor cell lines: Hep-2 (laryngeal carcinoma), A549 (human lung cancer), CaES-17 (esophageal cancer cell), PC-3 (prostate cancer), CNE (nasopharyngeal carcinoma cell) and SK-OV-3 (ovarian cancer cell), all of which are purchased from China Center For Type Culture Collection; RKO (human colon adenocarcinoma cell), MGC 803 (human gastric cancer cell), MG63 (osteosarcoma), and U87 MG (malignant glioma cell), all of which are purchased from Fuxiang Bio-tech Co. Ltd., Shanghai, China; PANC-1 (pancreatic cancer), Huh? (human liver cancer cell), Becap37 (human breast cancer cell), and Hela (human cervical cancer cell), all of which are donated by Cancer Research Institute of Zhejiang University, China.
(§2) Reagents: the same as in Example 5.
(§3) Obtaining 4000 well-growing human solid tumor cells and inoculating them into wells of a 96-well cell culture plate. The culture medium is DMEM High Glucose cell culture medium containing 10% fetal bovine serum. The plate is placed in a carbon dioxide cell incubator (5% CO2) at 37° C. and incubated for 24 hours. After been added with tetrandrine derivatives of different concentration and mixing uniformly, the plate is placed in a carbon dioxide cell incubator (5% CO2) at 37° C. and incubated for 72 hours. Then the viable cell concentration is determined by the MTT method and the cell viability (%) after drug treatment is calculated. In this experiment, the cell viability of control group (not treated with any compound) is set as 100%.

[2] = system: Becap37 (human breast cancer cell); assay: as above; assay type: cell-based; conditions: Homo sapiens; 72 h, MTT, Becap-37
Method: as §1, §2, §3

A549 (human lung cancer) = assay: as above; assay type: cell-based; conditions: Homo sapiens; 72 h, MTT, A549
Method: as §1, §2, §3

[3] = system: MGC 803 (human gastric cancer cell); assay: as above; assay type: cell-based; conditions: Homo sapiens
Method: as §1, §2, §3

[4] = system: CaES-17 (esophageal cancer cell); assay: as above; assay type: cell-based, human; conditions: Homo sapiens, CaEs17; 72 h, MTT, CAES-17
Method: as §1, §2, §3

MG63 (osteosarcoma) = assay: as above; assay type: cell-based, human; conditions: Homo sapiens; 72 h, MTT, MG-63
Method: as §1, §2, §3

PC-3 (prostate cancer) = assay: as above; assay type: cell-based, human; conditions: Homo sapiens; 72 h, MTT, PC-3
Method: as §1, §2, §3

[5] = system: PANC-1 (pancreatic cancer); assay: as above; assay type: cell-based, human; conditions: Homo sapiens; 72 h, MTT, PANC-1
Method: as §1, §2, §3

[6] = system: K562/adr (drug-resistant, chronic myeloid leukemia, CML); assay: Leukemia cell growth inhibition, MTT, 72 h (Example 5); assay type: cell-based, human; conditions: Homo sapiens, K562/Adr; 72 h, MTT
Excerpt: (§4) Leukemia cell lines: leukemia cell lines: K562/adr (drug-resistant, chronic myeloid leukemia, CML), NB4 (acute promyelocytic leukemia, AML), Kasumi-1 (acute myeloid leukemia M2 type, AML-M2), Jurkat (acute lymphoblastic leukemia, ALL), all of which are donated by Cancer Research Institute of Zhejiang University, China; and H9 (acute lymphoblastic leukemia, ALL), which is purchased from China Center for Type Culture Collection.
(§5) Reagents: The standard sample of tetrandrine (TTD) is purchased from Ci Yuan Biotechnology Co., Ltd., Shaanxi, China; and the 5-substituted tetrandrine derivatives of the present invention.
(§6) Obtaining 6000 well-growing leukemia cells and inoculating them into wells of a 96-well cell culture plate. The culture medium is a 1640 cell culture medium containing 10% fetal bovine serum. After adding the tetrandrine derivatives of different concentrations and mixing uniformly, placing the plate in a carbon dioxide cell incubator (5% CO2) at 37° C. and incubating for 72 hours. Then the viable cell concentration is determined by the MTT method.

[7] = system: H9 (acute lymphoblastic leukemia, ALL); assay: as above; assay type: cell-based, human; conditions: Homo sapiens; 72 h, MTT
Excerpt: as §4, §5, §6

[8] = system: Jurkat (acute lymphoblastic leukemia, ALL); assay: as above; assay type: cell-based, human; conditions: Homo sapiens, Jurkat; 72 h, MTT
Excerpt: as §4, §5, §6

[9] = system: Kasumi-1 (acute myeloid leukemia M2 type, AML-M2); assay: as above; assay type: cell-based, human; conditions: Homo sapiens, Kasumi 1
Excerpt: as §4, §5, §6

[10] = system: RPMI8226 (multiple myeloma); assay: Multiple myeloma cell growth inhibition, MTT, 72 h (Example 6); assay type: cell-based, human; conditions: Homo sapiens, RPMI-8226; 72 h, MTT, RPMI8226
Method: Multiple myeloma and lymphoma cell lines: RPMI8226 (multiple myeloma), purchased from Fuxiang Bio-tech Co. Ltd., Shanghai, China.
as §2
as §6, with “incubated” for “incubating”

[11] = system: RKO (human colon adenocarcinoma cell); assay: Solid tumor cell growth inhibition, MTT, 72 h (Example 7); assay type: cell-based; conditions: Homo sapiens; 72 h, MTT, RKO
Method: as §1, §2, §3

Row | IC50 [1] [µg/mL] | IC90 [1] [µg/mL] | IC50 [2] [µg/mL] | IC90 [2] [µg/mL] | IC50 (A549 (human lung cancer)) [µg/mL] | IC90 (A549 (human lung cancer)) [µg/mL] | IC50 [3] [µg/mL] | IC90 [3] [µg/mL] | IC50 [4] [µg/mL] | IC90 [4] [µg/mL] | IC50 (MG63 (osteosarcoma)) [µg/mL] | IC90 (MG63 (osteosarcoma)) [µg/mL] | IC50 (PC-3 (prostate cancer)) [µg/mL] | IC90 (PC-3 (prostate cancer)) [µg/mL] | IC50 [5] [µg/mL] | IC90 [5] [µg/mL] | IC50 [6] [µg/mL] | IC90 [6] [µg/mL] | IC50 [7] [µg/mL] | IC90 [7] [µg/mL] | also measured | SMILES
1 | 2.93 (≈ 4.04 µM) | 5.07 (≈ 6.99 µM) | 1.8 (≈ 2.48 µM) | 4.31 (≈ 5.95 µM) | 4.05 (≈ 5.59 µM) | 11 (≈ 15.1 µM) | 5.17 (≈ 7.13 µM) | 8.33 (≈ 11.5 µM) | 2.3 (≈ 3.17 µM) | 16.6 (≈ 22.9 µM) | 1.08 (≈ 1.49 µM) | 2.49 (≈ 3.43 µM) | 4.19 (≈ 5.78 µM) | 9.49 (≈ 13.1 µM) | 4.63 (≈ 6.39 µM) | 10 (≈ 13.8 µM) | 0.98 (≈ 1.35 µM) | 5.59 (≈ 7.71 µM) | 2.31 (≈ 3.19 µM) | 4.4 (≈ 6.07 µM) | IC50 [8]: 3.45 µg/mL (≈ 4.76 µM); IC90 [8]: 11.7 µg/mL (≈ 16.1 µM); IC50 [9]: 2.11 µg/mL (≈ 2.91 µM); IC90 [9]: 8.17 µg/mL (≈ 11.3 µM); IC50 [10]: 0.29 µg/mL (≈ 0.4 µM); IC90 [10]: 2.76 µg/mL (≈ 3.81 µM) | COCCCOCc1c2c3c(c(OC)c1OC)Oc1cc4c(cc1OC)CCN(C)[C@H]4Cc1ccc(cc1)Oc1cc(ccc1OC)C[C@@H]3N(C)CC2 [BS-TE-416]
2 | 1.84 (≈ 2.42 µM) | 3.51 (≈ 4.61 µM) | 4.89 (≈ 6.43 µM) | 36.6 (≈ 48.1 µM) | 3.1 (≈ 4.07 µM) | 7.05 (≈ 9.27 µM) | 2.59 (≈ 3.4 µM) | 3.97 (≈ 5.22 µM) | 4.8 (≈ 6.31 µM) | 14.9 (≈ 19.6 µM) | 2.88 (≈ 3.78 µM) | 9.84 (≈ 12.9 µM) | 5.77 (≈ 7.58 µM) | 9.09 (≈ 11.9 µM) | 6 (≈ 7.89 µM) | 9.9 (≈ 13 µM) | 0.87 (≈ 1.14 µM) | 2.78 (≈ 3.65 µM) | 2.5 (≈ 3.29 µM) | 3.99 (≈ 5.24 µM) | IC50 [8]: 2.94 µg/mL (≈ 3.86 µM); IC90 [8]: 6.94 µg/mL (≈ 9.12 µM); IC50 [9]: 2.52 µg/mL (≈ 3.31 µM); IC90 [9]: 8 µg/mL (≈ 10.5 µM); IC50 [10]: 0.23 µg/mL (≈ 0.302 µM); IC90 [10]: 1.13 µg/mL (≈ 1.49 µM) | COc1ccc2cc1Oc1ccc(cc1)C[C@H]1c3cc(c(OC)cc3CCN1C)Oc1c(OC)c(OC)c(COCc3ccc(F)cc3)c3c1[C@H](C2)N(C)CC3 [BS-TE-408]
3 | 1.09 (≈ 1.46 µM) | 1.91 (≈ 2.55 µM) | 1.9 (≈ 2.54 µM) | 3.31 (≈ 4.42 µM) | 2.44 (≈ 3.26 µM) | 5.61 (≈ 7.49 µM) | 1.06 (≈ 1.42 µM) | 1.9 (≈ 2.54 µM) | 1.74 (≈ 2.32 µM) | 5.98 (≈ 7.98 µM) | 1.31 (≈ 1.75 µM) | 4.75 (≈ 6.34 µM) | 3.5 (≈ 4.67 µM) | 5.76 (≈ 7.69 µM) | 2.76 (≈ 3.69 µM) | 4.9 (≈ 6.54 µM) | 0.57 (≈ 0.761 µM) | 2.06 (≈ 2.75 µM) | 1.71 (≈ 2.28 µM) | 2.5 (≈ 3.34 µM) | IC50 [8]: 2.22 µg/mL (≈ 2.96 µM); IC90 [8]: 5.71 µg/mL (≈ 7.62 µM); IC50 [9]: 1.95 µg/mL (≈ 2.6 µM); IC90 [9]: 6.41 µg/mL (≈ 8.56 µM); IC50 [10]: 0.14 µg/mL (≈ 0.187 µM); IC90 [10]: 0.89 µg/mL (≈ 1.19 µM) | COc1ccc2cc1Oc1ccc(cc1)C[C@H]1c3cc(c(OC)cc3CCN1C)Oc1c(OC)c(OC)c(COCc3ccsc3)c3c1[C@H](C2)N(C)CC3 [BS-TE-415]
4 | 2.08 (≈ 2.6 µM) | 3.88 (≈ 4.85 µM) | 3.66 (≈ 4.58 µM) | 6.19 (≈ 7.74 µM) | 3.12 (≈ 3.9 µM) | 14.2 (≈ 17.7 µM) | 2.57 (≈ 3.21 µM) | 9 (≈ 11.3 µM) | 6.81 (≈ 8.51 µM) | 16.6 (≈ 20.8 µM) | 1.72 (≈ 2.15 µM) | 4.69 (≈ 5.86 µM) | 6.55 (≈ 8.19 µM) | 9 (≈ 11.3 µM) | 6.47 (≈ 8.09 µM) | 11.1 (≈ 13.9 µM) | 1.47 (≈ 1.84 µM) | 14.5 (≈ 18.1 µM) | 2.88 (≈ 3.6 µM) | 5.84 (≈ 7.3 µM) | IC50 [11]: 3.12 µg/mL (≈ 3.9 µM); IC90 [11]: 4.7 µg/mL (≈ 5.88 µM); IC50 [8]: 2.66 µg/mL (≈ 3.33 µM); IC90 [8]: 9.06 µg/mL (≈ 11.3 µM); IC50 [9]: 2.32 µg/mL (≈ 2.9 µM); IC90 [9]: 7.5 µg/mL (≈ 9.38 µM); IC50 [10]: 0.47 µg/mL (≈ 0.588 µM); IC90 [10]: 1.92 µg/mL (≈ 2.4 µM) | COc1ccc2cc1Oc1ccc(cc1)C[C@H]1c3cc(c(OC)cc3CCN1C)Oc1c(OC)c(OC)c(COC(=O)c3ccc(N(C)C)cc3)c3c1[C@H](C2)N(C)CC3 [BS-TE-204]
